Reference: US8058468B2, “Carbamate antibiotics” (Nederlandse Organisatie Voor …, priority 2005, dated 2011)
Values after ≈ are worked out from the molar mass of the structure shown. Where two headings read alike, the source gives them in different places.

Tests used:
MRSA 2141 = experiment: Local thigh muscle infection with MRSA 2141 in the mouse, CFU outgrowth; type: in vivo; conditions: for Log reduction of MRSA 2141 CFU in thigh muscle: vs vehicle; for Reduction of bacterial outgrowth against the untreated group: P≦0.01
Procedure: (§1) The purpose of this study was to investigate the antibiotic efficacy of different doses of compound BAS00674552 against a local infection with MRSA 2141 in the mouse. Thirty mice were treated intravenously with 0.5, 5.0 or 50 mg/kg body weight, respectively. The observation period was three days. Outgrowth of the infection was used to establish drug efficacy.
The test substances were administered as a solution in dimethylsulfoxide (DMSO). The test substance was administered as 20 μl injections per mouse at all dose levels. Vancomycin was used as positive control and injected intravenously as a 10 mg/ml solution in DMSO (20 μl per mouse).
The study was performed according to Lab-Sop-Amp-Anim-002 and Lab-Sop-Amp-Bac-003. In short, mice were injected with 11E05 MRSA bacteria, strain 2141 in the right thigh muscle, followed one day later by an i.v. injection of the test compound, vancomycin or vehicle in the tail vein. 24 hours later mice were sacrificed, blood was collected by heart puncture and the right thigh muscle was removed. Plasma was prepared from blood samples and stored at −80°±10° C. for possible future analysis. Thigh muscles were weighted and homogenized using an Ultra-Turrax® and dilutions of the homogenate were prepared in saline. Limiting dilutions were plated onto agar plates and two days later the number of MRSA 2141 CFU were determined for each individual mouse as an indication of bactericidal activity of the compound. Additionally, tests were performed to determine if the bacteria used are still oxacillin resistant Staphylococcus aureus. This was done before injection and on pooled thigh muscle isolates per group. For this purpose Staphaurex® (Remel Europe Ltd., Crossways, UK) and ORSAB®+supplements (Oxoid Ltd., Basingstoke, UK) were used. In vivo antibiotic activity is determined by a CFU reduction of >90% (1 log reduction) in comparison to the negative control (vehicle only).
The study was comprised five groups of 10 females each.

S. aureus ATCC6538 = experiment: Further MIC tests, performed as in Example 1; type: cell-based; conditions: Staphylococcus aureus
Procedure: (§2) MIC test were performed according to standard methodology: M7-A6-“Methods for Dilution Antimicrobial Susceptibility Tests for Bacteria That Grow Aerobically”; Approved Standard, Sixth Edition Clinical and Laboratory Standards Institute 2005 (CLSI/formerly NCCLS).
Further MIC tests, performed as in Example 1, were performed on several of the above synthesized compounds.

[1] = Observation scoring for adverse side effects in infected treated mice; type: in vivo, mouse; conditions: all animals
Procedure: as §1

S. aureus N315 = experiment: MIC test (CLSI M7-A6), single strain; type: cell-based; conditions: Staphylococcus aureus
Procedure: as §2
(§3) Table 2 lists the results of 3 different compounds according to Formula (I) on single strains of S. aureus as MIC values expressed in micrograms per milliliter.

S. aureus MW2 = experiment: MIC test (CLSI M7-A6), single strain; type: cell-based; conditions: Staphylococcus aureus
Procedure: as §2, §3

S. aureus ATCC 29213 = experiment: MIC test (CLSI M7-A6), single strain; type: cell-based; conditions: Staphylococcus aureus, ATCC29213; single strain ATCC 29213
Procedure: as §2, §3

[2] = system: multiple strains of S. aureus; experiment: MIC test on multiple strains of S. aureus; type: cell-based, Staphylococcus aureus; conditions: for MIC 50 / MIC 90: 59-60 tested S. aureus strains; for Range MIC (lowest-highest): highest: highest value over 59-60 tested S. aureus strains; for Range MIC (lowest-highest): lowest: lowest value over 59-60 tested S. aureus strains
Procedure: MIC test were performed according to standard methodology: M7-A6-“Methods for Dilution Antimicrobial Susceptibility Tests for Bacteria That Grow Aerobically”; Approved Standard, Sixth Edition Clinical and Laboratory Standards Institute 2005 (CLSI/formerly NCCLS). The MIC values are expressed as a range between the lowest value and the highest value found in these experiments. Both the average MIC50 and MIC90 are indicated in bold.

[3] = duplo (duplicate determination), read-out: MIC-value S. aureus ATCC6538 duplo
[4] = first determination, read-out: MIC-value S. aureus ATCC6538

Compound | MIC (S. aureus ATCC6538; [3]) | MIC (S. aureus ATCC6538; [4]) | MIC (S. aureus N315) | MIC (S. aureus MW2) | MIC (S. aureus ATCC 29213) | MIC 50 [2] | MIC 90 [2] | Range MIC (lowest-highest): highest [2] | Range MIC (lowest-highest): lowest [2] | also measured
CN[C@H](CC(C)C)C(=O)N[C@H]1C(=O)N[C@@H](CC(N)=O)C(=O)N[C@H]2C(=O)N[C@H]3C(=O)N[C@H](C(=O)N[C@H](C(=O)O)c4cc(O)cc(O)c4-c4cc3ccc4O)[C@H](O)c3ccc(c(Cl)c3)Oc3cc2cc(c3O[C@@H]2O[C@H](CO)[C@@H](O)[C@H](O)[C@H]2O[C@H]2C[C@](C)(N)[C@H](O)[C@H](C)O2)Oc2ccc(cc2Cl)[C@H]1O [vancomycin, Vancomycin, reference compound] | – | – | – | – | – | – | – | – | – | Log reduction of MRSA 2141 CFU in thigh muscle (MRSA 2141; positive control, 10 mg/ml i.v., 20 μl per mouse (10 mg/kg)): Over 1 Log
Cc1ccc(NC(=O)OC(C)CNC(=O)OCC(C)C)cc1 (centres unmarked) [TAC 1_005, p-tolyl-carbamic acid 2-isobutoxycarbonylamino-1-methyl-ethyl ester] | 50 µg/mL (≈ 162 µM) | 100 µg/mL (≈ 324 µM) | – | – | – | – | – | – | – | –
CCNC(=O)OCCOC(=O)Nc1ccc(Cl)c(Cl)c1 [TAC 1_011, (3,4-dichloro-phenyl)-carbamic acid 2-ethylcarbamoyloxy-ethyl ester] | 100 µg/mL (≈ 311 µM) | 100 µg/mL (≈ 311 µM) | – | – | – | – | – | – | – | –
CC(C)COC(=O)NCC(C)OC(=O)Nc1ccc(C(F)(F)F)cc1 (centres unmarked) [TAC 1_007, (4-trifluoromethyl-phenyl)-carbamic acid 2-isobutoxycarbonylamino-1-methyl-ethyl ester] | 25 µg/mL (≈ 69 µM) | 12.5 µg/mL (≈ 34.5 µM) | – | – | – | – | – | – | – | –
CC(C)COC(=O)NCC(C)OC(=O)Nc1ccc(Cl)c(Cl)c1 (centres unmarked) [BAS 00674552, (3,4-dichloro-phenyl)-carbamic acid 2-isobutoxycarbonylamino-1-methyl-ethyl ester] | 6.25 µg/mL (≈ 17.2 µM) | 25 µg/mL (≈ 68.8 µM) | 4 µg/mL (≈ 11 µM) | 4 µg/mL (≈ 11 µM) | 8 µg/mL (≈ 22 µM) | 8 microgram/milliliter | 16 microgram/milliliter | >32 microgram/milliliter | 4 microgram/milliliter | Score on observation scoring sheets (DEC guidelines) [1]: < 8; Adverse side effects ([1]; single i.v. dose 0.5-50 mg/kg): no signs of adverse side effects were observed; Log reduction of MRSA 2141 CFU in thigh muscle (MRSA 2141; 5 mg/kg single i.v. dose, 24 h after dosing): Approximately 2 Log; Reduction of bacterial outgrowth against the untreated group (MRSA 2141; 5 mg/kg): significant reduction of bacterial outgrowth; Log reduction of MRSA 2141 CFU in thigh muscle (MRSA 2141; 50 mg/kg single i.v. dose, 24 h after dosing): Approximately 2 Log; Reduction of bacterial outgrowth against the untreated group (MRSA 2141; 50 mg/kg): significant reduction of bacterial outgrowth; Efficacy against local MRSA 2141 infection (statistical analysis) (MRSA 2141; all doses, P≦0.001): effective
NC(=O)OCCOC(=O)Nc1ccc(Cl)c(Cl)c1 [TAC 1_009, (3,4-dichloro-phenyl)-carbamic acid 2-carbamoyloxy-ethyl ester] | 50 µg/mL (≈ 171 µM) | 100 µg/mL (≈ 341 µM) | – | – | – | – | – | – | – | –
CCC(COC(=O)Nc1ccc(Cl)c(Cl)c1)NC(=O)OC(C)C (centres unmarked) [BAS 00674544, (3,4-dichloro-phenyl)-carbamic acid 2-isopropoxycarbonylamino-butyl ester] | – | – | 8 µg/mL (≈ 22 µM) | 8 µg/mL (≈ 22 µM) | 8 µg/mL (≈ 22 µM) | 16 microgram/milliliter | 32 microgram/milliliter | >32 microgram/milliliter | 8 microgram/milliliter | –
CNC(=O)OCCOC(=O)Nc1ccc(Cl)c(Cl)c1 [TAC 1_010, (3,4-dichloro-phenyl)-carbamic acid 2-methylcarbamoyloxy-ethyl ester] | 50 µg/mL (≈ 163 µM) | 100 µg/mL (≈ 326 µM) | – | – | – | – | – | – | – | –
CCOC(=O)NCCOC(=O)Nc1ccc(Cl)c(Cl)c1 [BAS 00212008, (3,4-dichloro-phenyl)-carbamic acid 2-ethoxycarbonylamino-ethyl ester] | – | – | 8 µg/mL (≈ 24.9 µM) | 16 µg/mL (≈ 49.8 µM) | 16 µg/mL (≈ 49.8 µM) | >32 microgram/milliliter | >32 microgram/milliliter | >32 microgram/milliliter | >32 microgram/milliliter | –
